Results taken from patent US10820591B2, “Substituted sulfonyl amides for controlling animal pests” (Bayer Aktiengesellschaft, priority 2016, dated 2020).

test system: Meloidogyne incognita; test: Meloidogyne incognita test (sand, lettuce, gall formation); format: in vivo; conditions: Meloidogyne incognita, 336 h, 20 ppm, after 14 days; read-out: nematicidal efficacy (formation of galls)
Summary of the method: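 Vessels held sand, diluted compound solution, M. incognita egg/larvae suspension and lettuce seeds, and the plants grew for 14 days. Efficacy in % came from root gall formation: 100% means no galls, 0% means galls equal to the untreated control.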

Structure (SMILES)	pest or weed control at 20 ppm [%]
O=C(NS(=O)(=O)c1ccccc1)c1cn(-c2ccccc2OC(F)(F)F)cn1 [I-214]	90
CC(C)S(=O)(=O)NC(=O)c1cn(C)c(Cc2cccc(Cl)c2)n1 [I-120]	100
Cc1nc(C(=O)NS(=O)(=O)C(C)C)cn1-c1ccccc1Cl [I-006]	100
COc1ccc(S(=O)(=O)NC(=O)c2ncn(CCC(F)(F)F)c2Br)cc1 [I-010]	90
O=C(NS(=O)(=O)c1c(Cl)cccc1Cl)c1cn(-c2ccccc2F)cn1 [I-220]	100
COc1ccc(Cl)c(S(=O)(=O)NC(=O)c2cn(-c3cc(Cl)c(Br)c(Cl)c3)cn2)c1 [I-314]	90
Cc1nc(C(=O)NS(=O)(=O)c2c(F)cccc2NC(C)C)cn1-c1cc(F)cc(F)c1 [I-385]	100
COc1ccc(Cl)c(S(=O)(=O)NC(=O)c2cn(-c3cc(Cl)cc(C(F)(F)F)c3)c(C(C)C)n2)c1 [I-401]	70
CCCn1cnc(C(=O)NS(=O)(=O)c2ccc(Cl)cc2)c1Cl [I-042]	100
O=C(NS(=O)(=O)c1ccccc1Cl)c1cn(Cc2cc(Cl)cc(Cl)c2)cn1 [I-165]	100
CCCn1cnc(C(=O)NS(=O)(=O)c2cccc(Cl)c2)c1Cl [I-041]	100
COc1ccc(Cl)c(S(=O)(=O)NC(=O)c2cn(-c3c(Cl)cccc3Cl)cn2)c1 [I-251]	90
Cc1nc(C(=O)NS(=O)(=O)c2c(Cl)cccc2Cl)cn1-c1cc(F)cc(Cl)c1 [I-322]	100
O=C(NS(=O)(=O)c1ccccc1Cl)c1cn(Cc2cccc(Cl)c2)cn1 [I-159]	100
COc1ccc(Br)c(S(=O)(=O)NC(=O)c2cn(-c3cc(F)cc(C(F)(F)F)c3)cn2)c1 [I-353]	100
O=C(NS(=O)(=O)c1ccc(C(F)(F)F)cc1)c1ncn(CCC(F)(F)F)c1Cl [I-021]	90
COc1ccccc1S(=O)(=O)NC(=O)c1cn(C)c(SC(C)C)n1 [I-478]	70
O=C(NS(=O)(=O)c1cccc(Cl)c1)c1ncn(CC(F)(F)C(F)(F)F)c1Cl [I-079]	100
CC(C)S(=O)(=O)NC(=O)c1cn(C)c(C(F)(F)F)n1 [I-471]	90
O=C(NS(=O)(=O)c1ccccc1)c1cn(-c2cc(Br)cc(C(F)(F)F)c2)cn1 [I-276]	70
Cc1ccc(-n2cnc(C(=O)NS(=O)(=O)c3ccccc3Cl)c2)cc1 [I-210]	100
O=C(NS(=O)(=O)c1cc(Cn2cccn2)ccc1Cl)c1cn(-c2cc(Cl)cc(C(F)(F)F)c2)cn1 [I-346]	70
COc1ccc(Cl)c(S(=O)(=O)NC(=O)c2cn(-c3ccccc3F)c(C)n2)c1 [I-260]	70
Cc1nc(C(=O)NS(=O)(=O)c2cc(Cl)ccc2Cl)cn1-c1cc(F)cc(F)c1 [I-329]	100

Structure (SMILES)	pest or weed control at 20 ppm [%]
COc1ccc(Cl)c(S(=O)(=O)NC(=O)c2cc(-c3cc(Cl)cc(Cl)c3)n(CC(F)(F)F)n2)c1 [I-448]	100
O=C(NS(=O)(=O)c1c(Cl)cccc1Cl)c1cn(-c2ccccc2OC(F)(F)F)cn1 [I-226]	100
O=C(NS(=O)(=O)c1ccccc1Cl)c1cn(-c2cc(F)c(F)c(F)c2)cn1 [I-307]	100
COc1ccccc1S(=O)(=O)NC(=O)c1ncn(-c2ccc(C(F)(F)F)cc2)c1Cl [I-424]	100
O=C(NS(=O)(=O)c1cc(C(F)(F)F)ccc1Cl)c1nc(Cl)n(CCC(F)(F)F)c1Cl [I-458]	100
Cn1cc(C(=O)NS(=O)(=O)c2ccccc2Cl)nc1Cc1cccc(Cl)c1 [I-119]	90
Cc1ccc(C)c(S(=O)(=O)NC(=O)c2cn(-c3cc(Cl)cc(Cl)c3)cn2)c1 [I-351]	100
COc1ccc(Cl)c(S(=O)(=O)NC(=O)c2nc(C)n(-c3cc(Cl)cc(Cl)c3)c2F)c1 [I-413]	100
O=C(NS(=O)(=O)c1ccccc1)c1cn(Cc2ccc(Cl)cc2)cn1 [I-151]	100
COc1ccc(Cl)c(S(=O)(=O)NC(=O)c2cn(-c3ccc(Cl)cc3)c(C)n2)c1 [I-259]	100
O=C(NS(=O)(=O)c1ccccc1Cl)c1cn(-c2c(Cl)cccc2Cl)cn1 [I-244]	100
Cc1nc(C(=O)NS(=O)(=O)c2c(F)cccc2NC2CC2)cn1-c1cc(F)cc(Cl)c1 [I-380]	100
O=C(NS(=O)(=O)c1ccc(Cl)cc1)c1cn(-c2ccc(Cl)cc2Cl)cn1 [I-201]	80
CCCn1cnc(C(=O)NS(=O)(=O)c2ccccc2Cl)c1Cl [I-040]	70
CSc1ccc(S(=O)(=O)NC(=O)c2ncn(CCC(F)(F)F)c2Cl)cc1 [I-089]	100
COc1ccc(Cl)c(S(=O)(=O)NC(=O)c2ncn(-c3ccc(Cl)cc3Cl)c2C(C)C)c1 [I-484]	70
Cn1cc(C(=O)NS(=O)(=O)c2ccccc2Cl)nc1C(F)(F)F [I-472]	90
O=C(NS(=O)(=O)c1ccc(Cl)cc1)c1ncn(C2CCCC2C(F)(F)F)c1Cl (stereo not shown) [I-066]	90
O=C(NS(=O)(=O)c1ccccc1)c1cn(-c2cc(F)cc(C(F)(F)F)c2)cn1 [I-301]	100
O=C(NS(=O)(=O)c1cccc(Cl)c1)c1ncn(-c2cccc(C(F)(F)F)c2)c1Cl [I-432]	90
O=C(NS(=O)(=O)c1cc(Cl)ccc1Cl)c1cn(Cc2ccccc2)cn1 [I-153]	100
O=C(NS(=O)(=O)c1ccccc1)c1ncn(CCCCl)c1Cl [I-049]	90
COc1ccc(Cl)c(S(=O)(=O)NC(=O)c2cn(-c3cc(Cl)cc(Cl)c3)c(C)n2)c1 [I-318]	100
CCc1nc(C(=O)NS(=O)(=O)c2cc(OC)ccc2Cl)cn1-c1cc(F)cc(F)c1 [I-394]	100

Structure (SMILES)	pest or weed control at 20 ppm [%]
O=C(NS(=O)(=O)c1ccccc1Cl)c1cn(-c2ccccc2OC(F)(F)F)cn1 [I-225]	100
O=C(NS(=O)(=O)c1ccccc1)c1cn(-c2ccc(Cl)cc2Cl)cn1 [I-199]	100
COc1ccc(Cl)c(S(=O)(=O)NC(=O)c2cn(-c3ccc(Cl)cc3)cn2)c1 [I-190]	100
O=C(NS(=O)(=O)c1ccccc1)c1cn(-c2cc(Cl)ccc2Cl)cn1 [I-195]	100
COc1cccc(S(=O)(=O)NC(=O)c2ncn(CCOC(F)(F)F)c2Cl)c1 [I-058]	70
Cn1nc(C(=O)NS(=O)(=O)c2c(F)cccc2F)cc1-c1c(F)cccc1F [I-146]	100
O=C(NS(=O)(=O)c1ccccc1C(F)(F)F)c1cn(-c2cc(C(F)(F)F)cc(C(F)(F)F)c2)cn1 [I-294]	90
COc1ccc(Cl)c(S(=O)(=O)NC(=O)c2cn(-c3cccc(Cl)c3Cl)cn2)c1 [I-246]	100
COc1ccccc1S(=O)(=O)NC(=O)c1ncn(C2CC2C(F)(F)F)c1Cl (stereo not shown) [I-064]	100
CSc1cccc(Cl)c1S(=O)(=O)NC(=O)c1nc(Cl)n(CCC(F)(F)F)c1Cl [I-453]	100
COc1ccc(Cl)c(S(=O)(=O)NC(=O)c2cn(-c3cc(Cl)cc(Cl)c3)c(Br)n2)c1 [I-441]	100
CCc1nc(C(=O)NS(=O)(=O)c2cc(OC)ccc2Cl)cn1-c1cc(F)cc(Cl)c1 [I-406]	100
COc1cccc(S(=O)(=O)NC(=O)c2ncn(CC(F)(F)C(F)(F)F)c2Cl)c1 [I-082]	100
O=C(NS(=O)(=O)c1cc(Cl)ccc1Cl)c1nc(Cl)n(CCC(F)(F)F)c1Cl [I-123]	90
O=C(NS(=O)(=O)c1c(Cl)cccc1Cl)c1cn(Cc2cc(Cl)cc(Cl)c2)cn1 [I-166]	100
O=C(NS(=O)(=O)c1c(Cl)cccc1Cl)c1cn(-c2cc(F)cc(C(F)(F)F)c2)cn1 [I-239]	100
CCOc1ccc(Cl)c(S(=O)(=O)NC(=O)c2cn(-c3cc(F)cc(Cl)c3)cn2)c1 [I-340]	100
Cc1nc(C(=O)NS(=O)(=O)c2c(Cl)cccc2SC(C)C)cn1-c1cc(F)cc(Cl)c1 [I-384]	100
COc1ccc(F)c(S(=O)(=O)NC(=O)c2nc(Cl)n(C3CC3C(F)(F)F)c2Cl)c1 (stereo not shown) [I-467]	100
O=C(NS(=O)(=O)c1ccccc1)c1cn(-c2cc(Cl)cc(Cl)c2)cn1 [I-180]	100
O=C(NS(=O)(=O)c1cc(Cl)c(Cl)s1)c1ncn(CCC(F)(F)F)c1Cl [I-086]	70
O=C(NS(=O)(=O)c1ccc(Cl)cc1)c1cn(Cc2ccccc2Cl)cn1 [I-158]	100

test system: Myzus persicae; test: Myzus persicae spray test (Chinese cabbage leaf discs); format: in vivo; conditions: foliar, 144 h, 100 g/ha, after 6 days, read-out: efficacy
Method: Myzus persicae—Spray Test [table] To produce a suitable active compound preparation, 1 part by weight of active compound is dissolved with the specified parts by weight of solvent and made up to the desired concentration with water containing an emulsifier concentration of 1000 ppm. To produce further test concentrations, the formulation is diluted with emulsifier-containing water. Discs of Chinese cabbage leaves (Brassica pekinensis) infested by all stages of the green peach aphid (Myzus persicae) are sprayed with an active compound preparation of the desired concentration. After 6 days, the efficacy in % is determined. 100% means that all the aphids have been killed; 0% means that no aphids have been killed.

Structure (SMILES)	pest or weed control at 100 g/ha [%]
COc1ccc(S(=O)(=O)NC(=O)c2ncn(CCC(F)(F)F)c2Br)cc1 [I-010]	90

same assay, conditions: foliar, 144 h, 500 g/ha, after 6 days, read-out: efficacy

Structure (SMILES)	pest or weed control at 500 g/ha [%]
O=C(NS(=O)(=O)c1ccccc1)c1cn(-c2ccccc2OC(F)(F)F)cn1 [I-214]	70
CC(C)S(=O)(=O)NC(=O)c1cn(C)c(Cc2cccc(Cl)c2)n1 [I-120]	90
Cc1nc(C(=O)NS(=O)(=O)C(C)C)cn1-c1ccccc1Cl [I-006]	90
COc1ccc(S(=O)(=O)NC(=O)c2ncn(CCC(F)(F)F)c2Br)cc1 [I-010]	70
O=C(NS(=O)(=O)c1c(Cl)cccc1Cl)c1cn(-c2ccccc2F)cn1 [I-220]	70
COc1ccc(Cl)c(S(=O)(=O)NC(=O)c2cn(-c3cc(Cl)c(Br)c(Cl)c3)cn2)c1 [I-314]	70
Cc1nc(C(=O)NS(=O)(=O)c2c(F)cccc2NC(C)C)cn1-c1cc(F)cc(F)c1 [I-385]	70
COc1ccc(Cl)c(S(=O)(=O)NC(=O)c2cn(-c3cc(Cl)cc(C(F)(F)F)c3)c(C(C)C)n2)c1 [I-401]	90
CCCn1cnc(C(=O)NS(=O)(=O)c2ccc(Cl)cc2)c1Cl [I-042]	70
O=C(NS(=O)(=O)c1cc(Cn2cccn2)ccc1Cl)c1cn(-c2cc(Cl)cc(C(F)(F)F)c2)cn1 [I-346]	70
O=C(NS(=O)(=O)c1ccc(Cl)cc1)c1cn(Cc2ccccc2Cl)cn1 [I-158]	90
